Structures can show the parent of a compound that is named as a salt. Where two headings read alike, the source gives them in different places.
Assays:
Abl (T315I) = molecular target: T1, Abl (T315I) (Homo sapiens, UniProt P00519, T315I); assay: Abl (T315I) Kinase Assay (KinaseGlo luminescent detection of residual ATP); assay type: biochemical
T1 construct: purchased Upstate
Experimental: The assay was performed similarly to the Abl kinase assay. Abl (T3151) (Upstate, 17 ng/well); Abltide substrate (100 μM) and ATP (5 nM) comprised the reaction mixture. Compound was similarly diluted, and the reaction plate was incubated for 60 minutes at 37° C. IC50's were calculated as for the Abl kinase assay using GraphPad Prism4.

Abl kinase = molecular target: T2, Abl kinase (Homo sapiens, UniProt P00519); assay: Abl Kinase Assay (KinaseGlo luminescent detection of residual ATP); assay type: biochemical
T2 construct: purchased Invitrogen

[1] = Abl (T315I) 17 ng/well, Abltide 100 μM, ATP 5 nM, 60 minutes at 37° C., read-out: Abl (T315I) IC50
[2] = Abl kinase 20 ng/well, Abltide 100 μM, ATP 500 nM, 60 minutes at 37° C., read-out: Abl IC50

SMILES | IC50 (Abl (T315I)) [µM] | IC50 (Abl kinase) [µM] | IC50 (Abl (T315I); [1]) [µM] | IC50 (Abl kinase; [2]) [µM]
O=S(=O)(c1cccc(Nc2ncc(/C=C/c3cccc(O)c3)s2)c1)N1CCNCC1 [Compound VI, 3-(-{2-[3-(Piperazine-1-sulfonyl)-phenylamino]-thiazol-5yl}-vinyl)-phenol] | 2.65 | 0.129 | – | –
Cc1nc(Nc2ncc(/C=C/c3cccc(O)c3)s2)cc(N2CCCNCC2)n1 [Compound XVIII, 3-{2-[2-(6-[1,4]Diazepan-1-yl-2-methyl-pyrimidin-4-ylamino)-thiazol-5-yl]-vinyl}-phenol] | – | – | 0.031 | 0.0027
CN(CCN1CCCC1)S(=O)(=O)c1cccc(Nc2ncc(/C=C/c3ccc(O)cc3)s2)c1 [Compound II, 3-{5-[2-(4-Hydroxy-phenyl)-vinyl]-thiazol-2-ylaminol}-N-methyl-N-(2-pyrrolidin-1-yl-ethyl)-benzenesulfonamide, Hydrochloride] | 0.827 | 0.393 | – | –
Cc1nc(Nc2ncc(/C=C/c3cccc4[nH]ncc34)s2)cc(N2CCNCC2)n1 [Compound XVI, {5-[2-(1H-Indazol-4-yl)-vinyl]-thiazol-2-yl}-(2-methyl-6-piperazin-1-yl-pyrimidin-4-yl)-amine] | – | – | 0.328 | 0.02
Oc1cccc(/C=C/c2cnc(Nc3cc(N4CCNCC4)ncn3)s2)c1 [Compound XVII, 3-{2-[2-(6-Piperazin-1-yl-pyrimidin-4-ylamino)-thiazol-5-yl]-vinyl}-phenol] | – | – | 0.035 | 0.0044
Oc1ccc(/C=C/c2cnc(Nc3cccc(N4CCNCC4)c3)s2)cc1 [Compound XIV, 4-{2-[2-(3-Piperazin-1-yl-phenylamino)-thiazol-5-yl]-vinyl}-phenol] | – | – | 0.051 | 0.024
Cc1nc(Nc2ncc(/C=C/c3cccc(O)c3)s2)cc(N2CCNCC2)n1 [Compound XX, (E)-3-(2-(2-(2-Methyl-6-(piperazin-1-yl)pyrimidin-4-ylamino)thiazol-5-yl)vinyl)phenol hydrochloride] | 0.018 | 0.0015 | – | –
Cc1nc(Nc2ncc(/C=C\c3cccc(O)c3)s2)cc(N2CCC(O)CC2)n1 [Compound VII, cis-1-(6-{5-[2-(3-Hydroxy-phenyl)-vinyl]-thiazol-2-ylamino}-2-methyl-pyrimidin-4-yl)-piperidin-4-ol] | – | – | 0.269 | 0.029
OCCN1CCN(c2cccc(Nc3ncc(/C=C/c4ccc5[nH]ccc5c4)s3)c2)CC1 [Compound V, 2-(4-(3-(5-((E)-2-(1H-indol-5-yl)vinyl)thiazol-2-ylamino)phenyl)piperazin-1-yl)ethanol] | 1.09 | 0.174 | – | –
Cc1nc(Nc2ncc(/C=C/c3ccc4[nH]ccc4c3)s2)cc(N2CCNCC2)n1 [Compound XV, {5-[2-(1H-Indol-5-yl)-vinyl]-thiazol-2-yl}-(2-methyl-6-piperazin-1-yl-pyrimidin-4-yl)-amine] | – | – | 0.343 | 0.054
Cc1nc(Nc2ncc(/C=C/c3ccc4nc(N)sc4c3)s2)cc(N2CCNCC2)n1 [Compound XIX, 6-[(E)-2-{2-[(2-Methyl-6-piperazin-1-ylpyrimidin-4-yl)amino]-1,3-thiazol-5-yl}vinyl]-1,3-benzothiazol-2-amine] | 0.111 | 0.016 | – | –
Cc1nc(Nc2ncc(/C=C/c3ccc4[nH]ncc4c3)s2)cc(N2CCNCC2)n1 [Compound XXIV, {5-[2-(1H-Indazol-5-yl)-vinyl]-thiazol-2-yl}-(2-methyl-6-piperazin-1-yl-pyrimidin-4-yl)-amine] | – | – | 0.35 | 0.016
Oc1ccc(/C=C/c2cnc(Nc3cccc(OCCN4CCCC4)c3)s2)cc1 [Compound XXII, 4-(2-{2-[3-(2-Pyrrolidin-1-yl-ethoxy)-phenylamino]-thiazol-5-yl}-vinyl)-phenol] | 0.272 | 0.161 | – | –
O=S(=O)(NCCN1CCCC1)c1ccc(Nc2ncc(C=Cc3cc(O)ccc3Cl)s2)cc1 [Compound IV, 4-{5-[2-(2-Chloro-5-hydroxy-phenyl)-vinyl]-thiazol-2-ylamino}-N-(2-pyrrolidin-1-yl-ethyl)-benzenesulfonamide] | – | – | – | 0.89
Oc1cccc(/C=C/c2cnc(Nc3cccc(N4CCNCC4)c3)s2)c1 [Compound X, 3-((E)-2-(2-(3-(Piperazin-1-yl)phenylamino)thiazol-5-yl)vinyl)phenol] | 0.381 | 0.014 | – | –
O=S(=O)(c1ccc(Nc2ncc(/C=C/c3ccc(O)cc3)s2)cc1)C1CCNCC1 | 0.262 | 0.215 | – | –
O=S(=O)(c1ccc(Nc2ncc(/C=C/c3cccc(O)c3)s2)cc1)N1CCNCC1 [Compound XI, 3-(-{2-[4-(Piperazine-1-sulfonyl)-phenylamino]-thiazol-5yl}-vinyl)-phenol] | – | – | 0.437 | 0.137
Cc1nc(Nc2ncc(/C=C/c3cccc(O)c3)s2)cc(N2CCC(O)CC2)n1 [Compound VIII, trans-1-(6-{5-[2-(3-Hydroxy-phenyl)-vinyl]-thiazol-2-ylamino}-2-methyl-pyrimidin-4-yl)-piperidin-4-ol] | – | – | 0.208 | 0.024
COc1cccc(/C=C/c2cnc(Nc3cc(N4CCNCC4)nc(C)n3)s2)c1 [Compound XXI, (E)-5-(3-Methoxystyryl)-N-(2-methyl-6-(piperazin-1-yl)pyrimidin-4-yl)thiazol-2-amine hydrochloride] | 0.605 | 0.224 | – | –
O=C(Nc1ccc(/C=C/c2cnc(Nc3cccc(N4CCNCC4)c3)s2)cc1)c1cccc(C(F)(F)F)c1 [Compound XXIII, N-(4-{2-[2-(3-Piperazin-1-yl-phenylamino)-thiazol-5-yl]-vinyl}-phenyl)-3-trifluoromethyl-benzamide] | – | – | 7.14 | 0.307
Cc1nc(Nc2ncc(/C=C/c3ccc(Cl)c4[nH]ccc34)s2)cc(N2CCNCC2)n1 [4-{5-[2-(3-Hydroxy-phenyl)-vinyl]-pyrimidine-2-ylamino}-N-piperdin-4-yl-benzenesulfonamide] | – | – | 0.05 | 0.07
Oc1cccc(/C=C/c2cnc(Nc3ccc(N4CCNCC4)cc3)s2)c1 [Compound IX, 3-((E)-2-(2-(4-(Piperazin-1-yl)phenylamino)thiazol-5-yl)vinyl)phenol] | 0.154 | 0.015 | – | –
Cc1nc(Nc2ncc(/C=C/c3ccc(O)cc3)s2)cc(N2CCN(CCO)CC2)n1 [Compound III, 4-[2-(2-{6-[4-(2-Hydroxy-ethyl)-piperazin-1-yl]-2-methyl-pyrimidin-4-yl-amino}-thiazol-5-yl)-vinyl]-phenol] | – | – | 0.066 | 0.026
